Measurements as given in US9371365B2, “Modified compstatin with peptide backbone and C-terminal modifications” (The Trustees of the University of Pennsylvania, priority 2009, dated 2016).
Like-named read-outs stand apart in the source and are kept apart here.

Assays:
[1] = molecular target: T1, C3 (Homo sapiens, UniProt P01024); experiment: ITC analysis of binding to C3
T1 construct: C3 was purified from fresh human plasma; from tissue; host or cells: fresh human plasma (blood bank of the Hospital of the University of Pennsylvania)
T1 sequence (P01024 23-667 limits assumed): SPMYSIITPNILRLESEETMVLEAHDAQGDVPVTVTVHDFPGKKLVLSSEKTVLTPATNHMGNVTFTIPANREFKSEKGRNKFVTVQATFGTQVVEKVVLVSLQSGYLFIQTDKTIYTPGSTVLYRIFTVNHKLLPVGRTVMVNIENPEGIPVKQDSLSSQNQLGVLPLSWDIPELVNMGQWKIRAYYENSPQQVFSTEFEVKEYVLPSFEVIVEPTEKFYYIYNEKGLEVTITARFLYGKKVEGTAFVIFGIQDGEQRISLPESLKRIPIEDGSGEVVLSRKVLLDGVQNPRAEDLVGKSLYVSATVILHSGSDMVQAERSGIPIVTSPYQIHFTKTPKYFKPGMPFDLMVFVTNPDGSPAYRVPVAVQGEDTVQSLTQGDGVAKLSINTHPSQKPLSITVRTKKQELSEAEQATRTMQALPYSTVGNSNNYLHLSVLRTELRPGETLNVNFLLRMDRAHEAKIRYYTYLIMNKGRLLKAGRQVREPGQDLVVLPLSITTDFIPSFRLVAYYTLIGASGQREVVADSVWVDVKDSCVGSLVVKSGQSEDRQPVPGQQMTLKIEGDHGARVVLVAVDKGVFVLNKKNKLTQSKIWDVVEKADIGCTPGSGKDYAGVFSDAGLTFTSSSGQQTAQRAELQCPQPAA
T1 sequence (P01024 672-1663 limits assumed): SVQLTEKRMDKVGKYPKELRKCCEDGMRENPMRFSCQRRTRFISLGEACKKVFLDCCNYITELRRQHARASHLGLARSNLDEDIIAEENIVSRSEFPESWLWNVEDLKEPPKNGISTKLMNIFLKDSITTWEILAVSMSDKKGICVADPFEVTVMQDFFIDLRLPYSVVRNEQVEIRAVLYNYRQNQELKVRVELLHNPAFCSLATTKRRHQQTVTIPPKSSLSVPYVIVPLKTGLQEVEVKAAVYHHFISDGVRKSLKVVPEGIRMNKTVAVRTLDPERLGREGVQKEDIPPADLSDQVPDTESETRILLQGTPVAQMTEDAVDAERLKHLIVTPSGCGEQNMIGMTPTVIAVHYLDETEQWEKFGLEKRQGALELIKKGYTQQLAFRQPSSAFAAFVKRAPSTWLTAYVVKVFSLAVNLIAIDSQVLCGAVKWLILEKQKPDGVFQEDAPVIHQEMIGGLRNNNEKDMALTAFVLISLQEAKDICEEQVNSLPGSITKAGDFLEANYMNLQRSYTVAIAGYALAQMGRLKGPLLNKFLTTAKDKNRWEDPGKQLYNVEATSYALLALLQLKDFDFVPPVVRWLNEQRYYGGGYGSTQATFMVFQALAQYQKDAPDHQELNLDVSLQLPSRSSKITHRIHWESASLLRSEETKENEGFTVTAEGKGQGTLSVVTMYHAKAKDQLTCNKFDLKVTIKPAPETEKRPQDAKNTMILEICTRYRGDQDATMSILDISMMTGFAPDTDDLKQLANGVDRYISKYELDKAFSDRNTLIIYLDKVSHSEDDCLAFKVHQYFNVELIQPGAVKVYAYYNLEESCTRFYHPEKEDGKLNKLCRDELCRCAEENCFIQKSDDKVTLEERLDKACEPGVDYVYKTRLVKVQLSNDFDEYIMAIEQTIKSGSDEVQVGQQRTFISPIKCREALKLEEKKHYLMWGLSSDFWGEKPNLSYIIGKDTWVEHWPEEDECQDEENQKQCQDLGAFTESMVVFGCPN
Protocol: C3 was purified from fresh human plasma obtained from the blood bank of the Hospital of the University of Pennsylvania. In brief, the plasma was fractionated with 15% (w/v) PEG 3350, and the pellet was resuspended in 20 mM phosphate buffer, pH 7.8, and then subjected to anion-exchange chromatography on a DEAE-HR 40 column (50×5 cm; Millipore Inc., Billerica, Mass.) with the same buffer. Proteins were eluted with 6 L of a linear gradient (15-70%) of 20 mM phosphate buffer, pH 7.8, containing 500 mM NaCl. C3 was further purified on a size-exclusion Superdex 200 26/60 column (Amersham Biosciences) and a Mono S column (Amersham Biosciences) to separate C3 from C3(H2O).
All titrations were performed in PBS (10 mM phosphate buffer with 150 mM NaCl, pH 7.4) at 25° C. using multiple peptide injections of 2-7 μL each. The raw isotherms were corrected for the heats of dilution by subtracting the isotherms representing peptide injections into the buffer. The resulting isotherms were fitted to a single site of sites models using Origin 7.0 software, and the model that produced the lowest χ^2 value was deemed to be appropriate for the respective data set. The Gibbs free energy was calculated as ΔG=ΔH−TΔS. Each experiment was repeated at least twice.

[2] = system: classical pathway of complement; experiment: Inhibition of classical pathway complement activation, ELISA in human serum; assay type: biochemical
Protocol: The ability of the compstatin analogs to inhibit the activation of the classical pathway of complement was assessed by ELISA (Mallik et al., 2005, J Med Chem 48:274-86). In brief, complement was activated in human serum using an antigen-antibody complex in the presence or absence of compstatin analogs, and the deposition of C3 fragments on the plate surface was detected using an HRP-conjugated polyclonal anti-C3 antibody. […] The percent inhibition was plotted against the peptide concentration, and the resulting data set was fitted to the logistic dose-response function using Origin 7.0 software. IC50 values were obtained from the fitted parameters that produced the lowest χ^2 value. Each analog was assayed at least three to seven times.
The ability of the compstatin analogs to inhibit the activation of the classical pathway of complement was assessed by ELISA as described in Example 1. Each conjugate was assayed at least three times.

[3] = molecular target: T2, C3b (Homo sapiens, UniProt P01024); experiment: SPR analysis of binding kinetics to immobilized C3b
T2 construct: biotin (chemical biotinylation of C3b)
T2 sequence (P01024 23-667 limits assumed): as the sequence (P01024 23-667 limits assumed) above
T2 sequence (P01024 749-1663 limits assumed): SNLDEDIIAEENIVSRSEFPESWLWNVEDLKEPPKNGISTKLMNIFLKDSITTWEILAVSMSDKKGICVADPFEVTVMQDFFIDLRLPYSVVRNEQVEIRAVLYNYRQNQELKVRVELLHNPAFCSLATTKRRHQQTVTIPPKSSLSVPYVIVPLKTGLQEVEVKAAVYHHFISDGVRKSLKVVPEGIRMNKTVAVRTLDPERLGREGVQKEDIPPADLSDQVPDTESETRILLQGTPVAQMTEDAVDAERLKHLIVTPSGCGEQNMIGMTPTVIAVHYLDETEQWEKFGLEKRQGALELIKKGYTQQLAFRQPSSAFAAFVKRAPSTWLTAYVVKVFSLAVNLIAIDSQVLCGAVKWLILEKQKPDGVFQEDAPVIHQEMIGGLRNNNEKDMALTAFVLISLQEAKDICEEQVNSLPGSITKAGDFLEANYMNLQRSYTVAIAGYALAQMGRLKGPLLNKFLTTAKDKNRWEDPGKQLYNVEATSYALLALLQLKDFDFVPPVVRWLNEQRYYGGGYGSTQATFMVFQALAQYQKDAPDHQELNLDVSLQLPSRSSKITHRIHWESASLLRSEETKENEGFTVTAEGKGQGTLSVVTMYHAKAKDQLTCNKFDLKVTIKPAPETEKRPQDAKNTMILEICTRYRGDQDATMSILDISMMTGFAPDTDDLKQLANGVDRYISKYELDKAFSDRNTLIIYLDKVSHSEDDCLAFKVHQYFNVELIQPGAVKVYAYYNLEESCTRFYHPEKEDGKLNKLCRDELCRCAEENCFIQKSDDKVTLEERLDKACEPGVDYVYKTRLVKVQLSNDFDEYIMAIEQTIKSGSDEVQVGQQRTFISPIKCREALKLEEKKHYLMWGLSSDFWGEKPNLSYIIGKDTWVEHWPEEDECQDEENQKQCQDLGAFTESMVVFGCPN
Protocol: (§1) The kinetics of the interaction between C3b and each compstatin analog was analyzed by SPR on a Biacore 3000 instrument (GE Healthcare Corp., Piscataway, N.J.) at 25° C. using PBS-T (10 mM sodium phosphate, 150 mM NaCl, 0.005% Tween-20, pH 7.4) as the running buffer, as described above. In brief, biotinylated C3b (30 μg/mL) was immobilized on a streptavidin-coated sensor chip, and a two-fold serial dilution series (1 μM-500 pM) of each analog was injected for 2 min at 30 μl/min, with a dissociation phase of 5-10 min. Peptide [Trp(Me)^4]-Ac-compstatin was included in each experimental series as an internal control and reference. Data analysis was performed using Scrubber (BioLogic Software, Campbell, Australia). The signals from an untreated flow cell and an ensemble of buffer blank injections were subtracted to correct for buffer effects and injection artifacts. Processed biosensor data were globally fitted to a 1:1 Langmuir binding model, and the equilibrium dissociation constant (KD) was calculated from the equation KD=kd/ka. Peptide solutions were injected in duplicate in every experiment, and each screening assay was performed at least twice.
as §1, with “in Example 1.” for “above.”, “μg/ml)” for “μg/mL)”, “Peptide [Trp(Me)^4]-Ac-compstatin was included in each experimental series as an internal control and reference.” left out

`CC[C@H](C)[C@H](NC(=O)[C@@H]1CSSC[C@H](NC(=O)[C@@H](NC(C)=O)[C@@H](C)CC)C(=O)N[C@@H](C(C)C)C(=O)N[C@@H](Cc2cn(C)c3ccccc23)C(=O)N[C@@H](CCC(N)=O)C(=O)N[C@@H](CC(=O)O)C(=O)N[C@@H](Cc2c[nH]c3ccccc23)C(=O)N(C)CC(=O)N[C@@H](C)C(=O)N[C@@H](Cc2c[nH]cn2)C(=O)N[C@@H](CCCNC(=N)N)C(=O)N1)C(N)=O` [Peptide 17, Ac−Ic[CV(^1−MeW)QDW(^N−MeG)AHRC]I-NH2] was tested, and the ΔH ([1]; ITC) was -14.1 kcal/mol, the “ΔH (text)” value ([1]; ITC) was -14.1 kcal/mol and the “−TΔS” value ([1]; ITC) was 2.9 kcal/mol. For the same compound, the “−TΔS (text)” value ([1]; ITC) was 2.9 kcal/mol, the ΔG ([1]; ITC, ΔG=ΔH−TΔS) was -11.2 kcal/mol and the “rKD ITC” value ([1]; relative to peptide 14) was 2.4. The ΔΔG ([1]; relative to peptide 14) was -0.5 kcal/mol, the ΔΔH ([1]; relative to peptide 14) was 3.5 kcal/mol and the “−TΔΔS” value ([1]; relative to peptide 14) was -4.1 kcal/mol. It also gave an IC50 ([2]; Table 1-2, read-out: IC50) of 92 nM, an IC50 ([2]; classical pathway, human serum, Table 2-1, read-out: IC50 (nM, CP)) of 92 nM and an IC50 ([2]; exemplary analogs table, read-out: IC50) of 92 nM. The rP ([2]; relative potency compared to peptide 14) was 2.2, the “IC50 (fold change)” value ([2]; relative to peptide 17) was 1 and the “fold stronger affinity than peptide 14” value ([3]; SPR) was 2.7 fold. For the same compound, the kd ([3]; SPR, 25° C., PBS-T) was 6.6 10^−3/s, the Koff ([3]; SPR, Table 2-1) was 6.6 10^−3, s^−1 and the Kon ([3]; SPR, Table 2-1) was 1.0 10^6, M^−1 · s^−1. For the same compound, the kon ([3]; pH 7.4, read-out: ka) was 1.5e+06 M⁻¹ s⁻¹, the “rKD SPR” value ([3]; relative to peptide 14) was 2.7 and the rka ([3]; relative to peptide 14) was 1.5. The rkd ([3]; relative to peptide 14) was 1.7.
